Where two headings read alike, the source gives them in different places.
Tests used:
[1] = selected physical properties of solvents
Text: In the table Perc, is used as an abbreviation for perchloroethylene.

[2] = chemical stability, reflux with metals and moisture, ion chromatography of aqueous wash; assay type: physicochemical
Text: The chemical stability of the compound 1233zd(E) by itself and also in the presence of water, metals, flux is another important factor to be considered in the identification of a successful solvent. […] This test continued for 2 weeks.
Solvent was boiled with water alone or in presence of various metal coupons such as stainless steel 304, cold-rolled steel, galvanized steel, copper, and aluminum. The coupons were partially immersed in the solvent which allowed the state of the coupons at the interface of liquid and vapor to be viewed. […] After the test, coupons were observed visually for rusting or pitting and the remaining solvent in the flask was examined for breakdown products including chlorides and fluorides which are good indicators of breakdown of solvents.

[3] = miscibility test, equal parts by weight of solvent and oils, visual observation; assay type: physicochemical
Text: Applicants compared the solubility of various materials which may be considered as soils to be cleaned in 1233zd(E) in Table 3. […] In all cases, the solvent looked clear and the mixtures are reported as miscible below. This is an initial mode of testing to check how well the solvent performs in dissolving the soils.

[4] = 0.2% moisture added, reflux 100 hours, AL
[5] = 0.2% moisture added, reflux 100 hours, CRS
[6] = 0.2% moisture added, reflux 100 hours, CU
[7] = 0.2% moisture added, reflux 100 hours, GAL
[8] = 0.2% moisture added, reflux 100 hours, S.S 304
[9] = 0.2% moisture added, reflux 100 hours, no metal
[10] = no additional moisture, reflux, AL
[11] = no additional moisture, reflux, CRS
[12] = no additional moisture, reflux, CU
[13] = no additional moisture, reflux, GAL
[14] = no additional moisture, reflux, S.S 304
[15] = no additional moisture, reflux, no metal
[16] = no additional moisture, virgin/no reflux

In the case of FC(F)(F)/C=C/Cl [1233zd(E), trans-1-chloro-3,3,3-trifluoropropene], the “Boiling Point” value [1] is reported as 19.52 °C, the “Flash Point” value [1] is reported as “None” and the Kauri-Butanol value [1] is reported as 25. The flammability [1] was “completely non-flammable”, the “Vapor Pressure” value ([1]; @20 C.) was 15.23 psi and the “Heat of Vaporization” value ([1]; at bp) was 193.9 kJ/kg. The Acetate [2, 4] was 0.04 ppm, the “Br^−” value [2, 4] was less than 0.05 ppm and the “Cl^−” value [2, 4] was 0.08 ppm. For the same compound, the “F^−” value [2, 4] was 0.05 ppm, the Formate [2, 4] was 0.10 ppm and the “NO3^−” value [2, 4] was less than 0.05 ppm. The “PO4^−3” value [2, 4] was less than 0.10 ppm, the “SO4^−2” value [2, 4] was 0.18 ppm and the Acetate [2, 5] was 0.07 ppm. For the same compound, the “Br^−” value [2, 5] was less than 0.05 ppm, the “Cl^−” value [2, 5] was 0.07 ppm and the “F^−” value [2, 5] was 0.05 ppm. For the same compound, the Formate [2, 5] was 0.14 ppm, the “NO3^−” value [2, 5] was 0.10 ppm and the “PO4^−3” value [2, 5] was less than 0.10 ppm. For the same compound, the “SO4^−2” value [2, 5] was 0.26 ppm, the Acetate [2, 6] was 0.09 ppm and the “Br^−” value [2, 6] was less than 0.05 ppm. The “Cl^−” value [2, 6] was 0.08 ppm, the “F^−” value [2, 6] was 0.06 ppm and the Formate [2, 6] was 0.16 ppm. The “NO3^−” value [2, 6] was 0.15 ppm, the “PO4^−3” value [2, 6] was less than 0.10 ppm and the “SO4^−2” value [2, 6] was 0.31 ppm. The Acetate [2, 7] was 0.04 ppm, the “Br^−” value [2, 7] was less than 0.05 ppm and the “Cl^−” value [2, 7] was 0.07 ppm. The “F^−” value [2, 7] was 0.05 ppm, the Formate [2, 7] was 0.08 ppm and the “NO3^−” value [2, 7] was less than 0.05 ppm. The “PO4^−3” value [2, 7] was less than 0.10 ppm, the “SO4^−2” value [2, 7] was 0.19 ppm and the Acetate [2, 8] was 0.04 ppm. For the same compound, the “Br^−” value [2, 8] was less than 0.05 ppm, the “Cl^−” value [2, 8] was 0.07 ppm and the “F^−” value [2, 8] was 0.06 ppm. The Formate [2, 8] was 0.08 ppm, the “NO3^−” value [2, 8] was less than 0.05 ppm and the “PO4^−3” value [2, 8] was less than 0.10 ppm. For the same compound, the “SO4^−2” value [2, 8] was 0.18 ppm, the Acetate [2, 9] was 0.08 ppm and the “Br^−” value [2, 9] was less than 0.05 ppm. The “Cl^−” value [2, 9] was 0.08 ppm, the “F^−” value [2, 9] was 0.05 ppm and the Formate [2, 9] was 0.12 ppm. For the same compound, the “NO3^−” value [2, 9] was less than 0.05 ppm, the “PO4^−3” value [2, 9] was less than 0.10 ppm and the “SO4^−2” value [2, 9] was 0.23 ppm. For the same compound, the Acetate [2, 10] was 0.12 ppm, the “Br^−” value [2, 10] was less than 0.05 ppm and the “Cl^−” value [2, 10] was 0.14 ppm. For the same compound, the “F^−” value [2, 10] was 0.09 ppm, the Formate [2, 10] was 0.26 ppm and the “NO3^−” value [2, 10] was 0.19 ppm. The “PO4^−3” value [2, 10] was less than 0.10 ppm, the “SO4^−2” value [2, 10] was 0.45 ppm and the Acetate [2, 11] was 0.08 ppm. The “Br^−” value [2, 11] was less than 0.05 ppm, the “Cl^−” value [2, 11] was 0.12 ppm and the “F^−” value [2, 11] was 0.08 ppm. The Formate [2, 11] was 0.17 ppm, the “NO3^−” value [2, 11] was 0.06 ppm and the “PO4^−3” value [2, 11] was less than 0.10 ppm. The “SO4^−2” value [2, 11] was 0.17 ppm, the Acetate [2, 12] was 0.12 ppm and the “Br^−” value [2, 12] was less than 0.05 ppm. The “Cl^−” value [2, 12] was 0.9 ppm, the “F^−” value [2, 12] was 0.09 ppm and the Formate [2, 12] was 0.10 ppm. The “NO3^−” value [2, 12] was 0.12 ppm, the “PO4^−3” value [2, 12] was less than 0.10 ppm and the “SO4^−2” value [2, 12] was 0.41 ppm. The Acetate [2, 13] was 0.12 ppm, the “Br^−” value [2, 13] was less than 0.05 ppm and the “Cl^−” value [2, 13] was 0.12 ppm. For the same compound, the “F^−” value [2, 13] was 0.08 ppm, the Formate [2, 13] was 0.22 ppm and the “NO3^−” value [2, 13] was 0.14 ppm. The “PO4^−3” value [2, 13] was less than 0.10 ppm, the “SO4^−2” value [2, 13] was 0.30 ppm and the Acetate [2, 14] was 0.10 ppm. For the same compound, the “Br^−” value [2, 14] was less than 0.05 ppm, the “Cl^−” value [2, 14] was 0.11 ppm and the “F^−” value [2, 14] was 0.08 ppm. For the same compound, the Formate [2, 14] was 0.12 ppm, the “NO3^−” value [2, 14] was 0.06 ppm and the “PO4^−3” value [2, 14] was less than 0.10 ppm. For the same compound, the “SO4^−2” value [2, 14] was 0.18 ppm, the Acetate [2, 15] was 0.13 ppm and the “Br^−” value [2, 15] was less than 0.05 ppm. The “Cl^−” value [2, 15] was 0.16 ppm, the “F^−” value [2, 15] was 0.09 ppm and the Formate [2, 15] was 0.19 ppm. For the same compound, the “NO3^−” value [2, 15] was 0.12 ppm, the “PO4^−3” value [2, 15] was less than 0.10 ppm and the “SO4^−2” value [2, 15] was 0.29 ppm. For the same compound, the Acetate [2, 16] was 0.13 ppm, the “Br^−” value [2, 16] was less than 0.05 ppm and the “Cl^−” value [2, 16] was 0.11 ppm. For the same compound, the “F^−” value [2, 16] was 0.08 ppm, the Formate [2, 16] was 0.35 ppm and the “NO3^−” value [2, 16] was 0.06 ppm. For the same compound, the “PO4^−3” value [2, 16] was less than 0.10 ppm, the “SO4^−2” value [2, 16] was 0.21 ppm and the “breakdown products in solvent after reflux” value ([2]; reflux with individual metals and added moisture (0.20% H2O), 100 hours) was “no increase of chlorides and fluorides in the solvent over the baseline and no other degradation products”. The “Soil Dissolution in solvent” value ([3]; Mineral Oil) was “Miscible”, the “Soil Dissolution in solvent” value ([3]; Refrigerant oil) was “Miscible” and the “Soil Dissolution in solvent” value ([3]; Silicone Lubricant) was “Miscible”. For the same compound, the “Soil Dissolution in solvent” value ([3]; Solder Flux) was “Miscible”.

In the case of FC(F)(Cl)C(F)(Cl)Cl [CFC-113, 1,1,2-trichlorotrifluoroethane], the “Boiling Point” value [1] is reported as 47.6 °C, the “Flash Point” value [1] is reported as “None” and the Kauri-Butanol value [1] is reported as 32. The “Vapor Pressure” value [1] was 5.27 psi and the “Heat of Vaporization” value ([1]; at bp) was 144.7 kJ/kg.

In the case of FC(C(F)C(F)(F)C(F)(F)F)C(F)(F)F (stereo not drawn) [HFC 43-10mee], the “Boiling Point” value [1] is reported as 54 °C, the “Flash Point” value [1] is reported as “None” and the “Vapor Pressure” value [1] is reported as 4.4 psi. The “Heat of Vaporization” value ([1]; at bp) was 129.7 kJ/kg.

For ClC(Cl)=C(Cl)Cl [Perc, perchloroethylene], the “Boiling Point” value [1] was 121.3 °C, the “Flash Point” value [1] was “None” and the “Vapor Pressure” value ([1]; @20 C.) was 0.27 psi. The “Heat of Vaporization” value ([1]; at bp) was 207 kJ/kg.

In the case of CCCBr [n-Propyl Bromide, n-propyl bromide, reference compound], the “Boiling Point” value [1] is reported as 71 °C, the “Flash Point” value [1] is reported as “None” and the “Vapor Pressure” value ([1]; @20 C.) is reported as 2.1 psi. For the same compound, the “Heat of Vaporization” value ([1]; at bp) was 246 kJ/kg, the “Soil Dissolution in solvent” value ([3]; Mineral Oil) was “Miscible” and the “Soil Dissolution in solvent” value ([3]; Refrigerant oil) was “Miscible”. The “Soil Dissolution in solvent” value ([3]; Silicone Lubricant) was “Miscible” and the “Soil Dissolution in solvent” value ([3]; Solder Flux) was “Miscible”.

O [water] showed a surface tension [1] of 72.1 dynes/cm.

For dichloropentafluoropropane [HCFC-225], the “Boiling Point” value [1] was 54 °C, the “Flash Point” value [1] was “None” and the “Vapor Pressure” value ([1]; @20 C.) was 5.6 psi. The “Heat of Vaporization” value ([1]; @25° C.) was 145@25 °C kJ/kg.

— patent publication US20130090280A1, “CLEANING COMPOSITIONS AND METHODS” (HONEYWELL INTERNATIONAL INC., priority 2011, published 2013)
